# Reference: patent publication US11071768B2, “Caspofungin compositions for inhalation” (TRILOGY THERAPEUTICS, INC., priority 2018, dated 2021)
# Where “and” joins values, the source holds several entries; their conditions need not be identical. Equal values may be shown once. Starred links: 1 amine or outer side, 2 acyl side, 3 side chain; linkers in the order of their positions; H or OH if unused. Positions of bridges follow the written chain, without caps; N, C: chain ends. Non-standard residues stand in square brackets, D forms with d. Residues, ends and D or L forms follow the SMILES beside them. *: point of attachment. hTyr(3S-OH,4S-OH,3'-OSO3H) = N[C@H](C(=O)O)[C@H](O)[C@@H](O)c1ccc(O)c(OS(=O)(=O)O)c1; pTerphenylCO(4''-OnC5H11) = CCCCCOc1ccc(-c2ccc(-c3ccc(C(=O)*)cc3)cc2)cc1; Orn(4R-OH,5R-OH) = O=C([C@H](C[C@@H](O)[C@@H](O)N[*:3])N[*:1])[*:2]; hTyr(3S-OH,4S-OH) = N[C@H](C(=O)O)[C@H](O)[C@@H](O)c1ccc(O)cc1; Pro(3S-OH,4S-Me) = C[C@H]1CN[C@H](C(=O)O)[C@H]1O; X1 = CCCCCOc1ccc(-c2cc(-c3ccc(C(=O)*)cc3)no2)cc1; Gln(3R-OH) = NC(=O)C[C@@H](O)[C@H](N)C(=O)O; Hyp = O=C(O)[C@@H]1C[C@@H](O)CN1
# Key:
# [1] = rat; cited from earlier work
# [2] = cited from earlier work
# [3] = tested on: Candida parapsilosis ATCC 22019; experiment: In vitro broth microdilution assay (CLSI); type: cell-based
# Experimental: (§1) The antifungal potency of the test article(s) was measured using the in vitro broth microdilution assay under assay conditions described by the Clinical and Laboratory Standards Institute. In this assay, the Minimum Inhibitory Concentration (MIC) is defined as the lowest concentration of an agent that causes a specified reduction in visible growth of the microorganism. The Minimal Effective Concentration (MEC) is defined as the lowest concentration of an agent that leads to the growth of small, rounded, compact hyphal forms as compared to the hyphal growth seen in the growth control well. In this study, MIC values are determined for the 9 Candida species and Cryptococcus neoformans. MEC values are determined for 3 filamentous fungi (2 Aspergillus fumigatus and Trichophyton rubrum). Test articles were prepared as the following:
# (§2) The 3.2 mg/mL working stock solution was 2-fold diluted serially in 0.9% NaCl to prepare a total of eleven 50-fold stock solutions, concentrations ranging from 3.2 to 0.003 mg/mL. A 4 μL aliquot of each dilution was added to 196 μL of broth medium seeded with the organism suspension in wells of a 96 well plate (fungal cell count: 1×10^3 to 1×10^4 colony forming units per mL). The final volume was 200 μL in each well. Following incubation, the test plates were visually examined and wells were scored for growth or complete growth inhibition to define the MIC values. Microscopy examination was used to determine the MEC values. Each test substance was evaluated in duplicate and the results below are the duplicate test values. Vehicle-control and an active reference agent were used as blank and positive controls, respectively.
# [4] = tested on: Trichophyton rubrum ATCC 10218; experiment: In vitro broth microdilution assay (CLSI); type: cell-based
# Experimental: as §1, §2
# [5] = tested on: Candida albicans Azole-R (20183.073); experiment: In vitro broth microdilution assay (CLSI); type: cell-based
# Experimental: as §1, §2
# [6] = tested on: Candida glabrata ATCC 36583; experiment: In vitro broth microdilution assay (CLSI); type: cell-based
# Experimental: as §1, §2
# [7] = tested on: Candida albicans ATCC90028; experiment: In vitro broth microdilution assay (CLSI); type: cell-based
# Experimental: as §1, §2
# Candida krusei ATCC 6258 = experiment: In vitro broth microdilution assay (CLSI); type: cell-based
# Experimental: as §1, §2
# [8] = tested on: Candida albicans Azole-R (20186.025); experiment: In vitro broth microdilution assay (CLSI); type: cell-based
# Experimental: as §1, §2
# [9] = tested on: Candida albicans ATCC44858; experiment: In vitro broth microdilution assay (CLSI); type: cell-based
# Experimental: as §1, §2
# [10] = tested on: Candida tropicalis ATCC 200956; experiment: In vitro broth microdilution assay (CLSI); type: cell-based
# Experimental: as §1, §2
# [11] = tested on: Aspergillus fumigatus ATCC204305; experiment: In vitro broth microdilution assay (CLSI); type: cell-based
# Experimental: as §1, §2
# [12] = tested on: Aspergillus fumigatus ATCC 13073; experiment: In vitro broth microdilution assay (CLSI); type: cell-based
# Experimental: as §1, §2
# [13] = tested on: Cryptococcus neoformans ATCC 24067; experiment: In vitro broth microdilution assay (CLSI); type: cell-based
# Experimental: as §1, §2
# [14] = KF water content of lyophilized formulations; type: physicochemical; settings: lyo cake, T0; listed as API (lyo process)
# From the text: Tables 17 and 18 summarize the % water content measured of the prepared formulations.
# [15] = Storage stability of lyophilized formulations by HPLC; type: physicochemical; settings: for RT 26.1 (hydrolysis degradation product) / RT 37.3 (dimerization degradation product) / HPLC purity % (total caspofungin): lyophilized
# Experimental: General: HPLC analysis was carried out on a Waters 2695 separations module equipped with an autosampler and a Waters 996 photodiode array detector. The HPLC method is described below:
# Aliquots of 0.5 mL of each formulation listed in Table 3 were frozen on dry ice for 30 min and lyophilized for 40 h to obtain white cakes. A portion of each cake was reconstituted in 1 mL of deionized water and analyzed by HPLC. The vials were stoppered, crimp sealed and placed on stability at 5° C. and 40° C.
# Each liquid formulation in Table 5 was equally split into two vials, frozen on dry ice for 1 h and lyophilized for 90 h to obtain white cakes. The vials were stoppered, crimp sealed and placed on stability at 5° C. and 40° C.
# The liquid formulations to be lyophilized were prepared according to Table 6. Aliquots of 0.5 mL of each liquid formulation were placed in 3 mL glass vials, frozen on dry ice for 40 min. The vials were partially stoppered with lyo septa and lyophilized for 5 days. The vials were placed on stability at 5° C., ambient (dark) and −20° C.
# Fourteen 0.5 mL aliquots of each liquid formulation prepared in part C were placed in 14 3-mL glass vials. The vials were frozen on dry ice for about 1 h and lyophilized for 5 days to obtain white cake. The vials were stoppered, crimp sealed and placed on stability at −20° C., 5° C., and ambient (dark) conditions.
# One vial of the lyophilized cake was reconstituted in 1 mL of deionized water to obtain a 10 mg/mL caspofungin diacetate solution. An aliquot (55 μL) was removed and diluted with 1 mL of deionized water for HPLC analysis.
# Tables 11, 12, 13, and 14 summarize the total caspofungin (%) as determined by HPLC present for each formulation prepared prior to storage and after several storage conditions. RT as below refers to HPLC retention time. The product with a retention time of 26.1 minutes is a hydrolysis degradation product while the product with a retention time of 37.3 minutes is a dimerization degradation product that is obtained from the dimerization of the hydrolysis products.
# [16] = Candida albicans ATCC90028 + 50% human serum
molecule,measurement,setting,value
"CCCCCOc1ccc(-c2cc(-c3ccc(C(=O)N[C@H]4C[C@@H](O)[C@@H](O)NC(=O)[C@@H]5[C@@H](O)[C@@H](C)CN5C(=O)[C@H]([C@H](O)CC(N)=O)NC(=O)[C@H]([C@H](O)[C@@H](O)c5ccc(O)c(OS(=O)(=O)O)c5)NC(=O)[C@@H]5C[C@@H](O)CN5C(=O)[C@H]([C@@H](C)O)NC4=O)cc3)no2)cc1 [Micafungin, micafungin] (X1-[Orn(4R-OH,5R-OH)]T[Hyp][hTyr(3S-OH,4S-OH,3'-OSO3H)][Gln(3R-OH)][Pro(3S-OH,4S-Me)]; lactam 1-C)",Exposure in the kidney relative to plasma,[1],3.4 fold
same,Exposure in the liver relative to plasma,[1],1.6 fold
same,Exposure in the lung relative to plasma,[1],2.9 fold
"CCCCCOc1ccc(-c2ccc(-c3ccc(C(=O)N[C@H]4C[C@@H](O)[C@@H](O)NC(=O)[C@@H]5[C@@H](O)[C@@H](C)CN5C(=O)[C@H]([C@@H](C)O)NC(=O)[C@H]([C@H](O)[C@@H](O)c5ccc(O)cc5)NC(=O)[C@@H]5C[C@@H](O)CN5C(=O)[C@H]([C@@H](C)O)NC4=O)cc3)cc2)cc1 [anidulafungin] ({pTerphenylCO(4''-OnC5H11)}-[Orn(4R-OH,5R-OH)]T[Hyp][hTyr(3S-OH,4S-OH)]T[Pro(3S-OH,4S-Me)]; lactam 1-C)",Time that levels stay above MICs for common pathogens,[2]; rat tissues,72 h
same,"Exposure in tissues (liver, lung, spleen, kidney) relative to plasma",[2]; rat,9-12 fold
same,Time to peak concentrations in tissues,[2]; rat,≤ 30 min
C[C@@H]1[C@H](O)[C@@H](C)/C=C/C=C/C=C/C=C/C=C/C=C/C=C/[C@H](O[C@@H]2O[C@H](C)[C@@H](O)[C@H](N)[C@@H]2O)C[C@@H]2O[C@](O)(C[C@@H](O)C[C@@H](O)[C@H](O)CC[C@@H](O)C[C@@H](O)CC(=O)O[C@H]1C)C[C@H](O)[C@H]2C(=O)O [amphotericin B],MIC,[3],0.25 mg/L
same,MIC,[4],0.125 mg/L
same,MIC,[5],0.125 mg/L
same,MIC,[6],0.125 mg/L
same,MIC,[7]; Candida albicans ATCC90028,0.125 mg/L
same,MIC,[7]; [16],0.25 mg/L
same,MIC,Candida krusei ATCC 6258,0.25 mg/L
same,MIC,[8],0.25 mg/L
same,MIC,[9],0.125 mg/L
same,MIC,[10],1 mg/L
caspofungin diacetate,MIC,[3],1 mg/L
same,MEC,[11],0.125 µg/mL
same,MEC,[4],0.125 µg/mL
same,MIC,[5],0.25 mg/L
same,MIC,[6],0.25 mg/L
same,MIC,[7]; Candida albicans ATCC90028,0.25 mg/L
same,MIC,[7]; [16],0.125 mg/L
same,MIC,Candida krusei ATCC 6258,1 mg/L
same,MIC,[8],0.25 mg/L
same,MEC,[12],0.0625 µg/mL
same,MIC,[9],0.25 mg/L
same,MIC,[13],16 mg/L
same,MIC,[10],0.25 mg/L
same,KF water content %,[14],6.16% and 3.94%
same,HPLC purity of control,"[15]; Pure API control, as printed in the head",99.72%)
same,RT 26.1 (hydrolysis degradation product),[15]; 40° C. 1 week,2.88%
same,RT 37.3 (dimerization degradation product),[15]; 40° C. 1 week,9.26%
same,HPLC purity % (total caspofungin),"[15]; 40° C. 1 week, listed as API (lyo process)",82.32%
same,HPLC purity % (total caspofungin),"[15]; 40° C. 1 week, listed as Pure API",88.48%
same,HPLC purity % (total caspofungin),[15]; 40° C. 3 week,75.71%
same,RT 26.1 (hydrolysis degradation product),[15]; 40° C. 3 week,6.09%
same,RT 37.3 (dimerization degradation product),[15]; 40° C. 3 week,4.38%
same,RT 26.1 (hydrolysis degradation product),[15]; T0,2.17%
same,RT 37.3 (dimerization degradation product),[15]; T0,1.57%
same,HPLC purity % (total caspofungin),"[15]; T0, listed as API (lyo process)",95.82% and 95.42%
